Structures are written as SMILES.

One assay deals with T1, mTOR (Homo sapiens, UniProt P42345).
T1 construct: FLAG; made in house
T1 sequence (P42345 1362-2549): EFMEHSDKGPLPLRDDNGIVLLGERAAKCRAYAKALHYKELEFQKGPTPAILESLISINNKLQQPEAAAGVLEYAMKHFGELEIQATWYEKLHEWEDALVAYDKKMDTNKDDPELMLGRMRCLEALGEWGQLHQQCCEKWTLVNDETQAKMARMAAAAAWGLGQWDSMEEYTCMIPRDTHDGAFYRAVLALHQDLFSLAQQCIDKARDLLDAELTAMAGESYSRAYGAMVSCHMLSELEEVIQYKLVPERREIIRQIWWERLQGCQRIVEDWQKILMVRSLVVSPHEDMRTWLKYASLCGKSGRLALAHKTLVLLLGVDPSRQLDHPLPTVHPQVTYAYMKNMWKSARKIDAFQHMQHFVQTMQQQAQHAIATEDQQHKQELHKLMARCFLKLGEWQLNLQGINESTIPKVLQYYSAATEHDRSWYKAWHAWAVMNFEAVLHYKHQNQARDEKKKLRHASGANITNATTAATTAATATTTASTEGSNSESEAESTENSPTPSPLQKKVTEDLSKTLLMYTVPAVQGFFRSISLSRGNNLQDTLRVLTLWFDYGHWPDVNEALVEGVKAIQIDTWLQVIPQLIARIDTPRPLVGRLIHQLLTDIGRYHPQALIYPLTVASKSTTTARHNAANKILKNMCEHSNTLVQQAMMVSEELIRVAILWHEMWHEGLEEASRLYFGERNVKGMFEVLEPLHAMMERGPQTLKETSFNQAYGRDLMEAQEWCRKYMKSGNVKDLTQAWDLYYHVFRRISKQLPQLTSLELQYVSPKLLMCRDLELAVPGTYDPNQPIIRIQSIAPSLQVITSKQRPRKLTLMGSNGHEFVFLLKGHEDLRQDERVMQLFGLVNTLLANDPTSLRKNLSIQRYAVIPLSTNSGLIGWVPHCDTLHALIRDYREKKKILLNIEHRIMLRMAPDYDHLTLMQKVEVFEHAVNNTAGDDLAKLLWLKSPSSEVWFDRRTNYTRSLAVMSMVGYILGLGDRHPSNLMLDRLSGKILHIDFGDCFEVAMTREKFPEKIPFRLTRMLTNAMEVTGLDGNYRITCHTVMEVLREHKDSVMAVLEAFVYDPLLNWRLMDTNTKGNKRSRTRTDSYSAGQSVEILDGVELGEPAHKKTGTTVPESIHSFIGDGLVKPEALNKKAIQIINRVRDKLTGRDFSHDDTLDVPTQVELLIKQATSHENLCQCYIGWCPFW
Briefly: In Vitro mTOR Kinase Assay (Echo), Test (a)(ii). It counts as biochemical. As to conditions: read-out: mTOR Kinase Assay (Echo). The procedure, abridged: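 Enzyme: HEK293-expressed, FLAG-purified mTOR C-terminal fragment (aa 1362-2549). Rxn 2 h RT with biotinylated peptide, stopped with EDTA 50 mM/BSA/Tris pH 7.4. Detection: T389 phospho-antibody AlphaScreen, 680 nm excitation. IC50.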
As to `CCNC(=O)Nc1ccc(-c2nc(N3CCOC[C@@H]3C)cc(C3(S(=O)(=O)CC)CC3)n2)cc1` [Example 11b, 1-ethyl-3-[4-[4-(1-ethylsulfonylcyclopropyl)-6-[(3S)-3-methylmorpholin-4-yl]pyrimidin-2-yl]phenyl]urea], the IC50 was found to be 3.33 nM.

For the molecule `CS(=O)(=O)C1(c2cc(N3CCOCC3)nc(-c3ccc(NC(=O)NCCO)cc3)n2)CCC1` [Example 12r, 3-(2-hydroxyethyl)-1-[4-[4-(1-methylsulfonylcyclobutyl)-6-morpholin-4-ylpyrimidin-2-yl]phenyl]urea], the IC50 is 0.991 nM.

For `C[C@H]1COCCN1c1cc(C2(S(C)(=O)=O)CCC2)nc(-c2ccc(NC(=O)NCCN(C)C)cc2)n1` [Example 5g, 3-(2-dimethylaminomethyl)-1-[4-[4-[(3S)-3-methylmorpholin-4-yl]-6-(1-methylsulfonylcyclobutyl)pyrimidin-2-yl]phenyl]urea], the IC50 worked out at 66.8 nM.

Turning to `C[C@H]1COCCN1c1cc(C2(S(C)(=O)=O)CC2)nc(-c2ccc(NC(=O)Nc3ccon3)cc2)n1` [Example 2g, 1-[4-[4-[(3S)-3-methylmorpholin-4-yl]-6-(1-methylsulfonylcyclopropyl)pyrimidin-2-yl]phenyl]-3-(1,2-oxazol-3-yl)urea], the IC50 was found to be 0.137 nM.

With `C[C@H]1COCCN1c1cc(C2(S(C)(=O)=O)CC2)nc(-c2ccc(NC(=O)Nc3ccccc3)cc2)n1` [Example 2h, 1-[4-[4-[(3S)-3-methylmorpholin-4-yl]-6-(1-methylsulfonylcyclopropyl)pyrimidin-2-yl]phenyl]-3-phenyl-urea], the IC50 turned out to be 0.272 nM.

Staying with this assay, now noted: table of enzyme assay Test (a)(ii); read-out: Test (a)(ii) IC50.
Turning to `CN(C(=O)C1(c2cc(N3CCOCC3)nc(-c3ccc(NC(=O)NCCO)cc3)n2)CC1)C1CC1` [Example 34c, N-cyclopropyl-1-[2-[4-(2-hydroxyethylcarbamoylamino)phe-nyl]-6-morpholin-4-ylpyrimidin-4-yl]-N-methylcyclopropane-1-carboxamide], the IC50 turned out to be 3.45 nM.

For `C[C@H]1COCCN1c1cc(C2(S(=O)(=O)c3ccc(Cl)cc3)CC2)nc(-c2ccc(NC(=O)Nc3ccc(C(F)(F)F)cc3)cc2)n1` [Example 27j, 1-[4-[4-[1-(4-chlorophenyl)sulfonylcyclopropyl]-6-[(3S)-3-methylmorpholin-4-yl]pyrimidin-2-yl]phenyl]-3-[4-(trifluoromethyl)phenyl]urea], the IC50 came out at 7.61 nM.

For `O=C(Nc1ccc(-c2nc(N3CCOCC3)cc(C3(S(=O)(=O)C4CC4)CCC3)n2)cc1)NC1CC1` [Example 13p, 3-cyclopropyl-1-[4-[4-(1-cyclopropylsulfonylcyclobutyl)-6-morpholin-4-ylpyrimidin-2-yl]phenyl]urea], the IC50 came to 2.02 nM.

On to `C[C@H]1COCCN1c1cc(C2(S(=O)(=O)c3ccc(OC(F)F)cc3)CC2)nc(-c2ccc(NC(=O)Nc3cnn(C)c3)cc2)n1` [Example 64d, 1-[4-[4-[1-[4-(difluoromethoxy)phenyl]sulfonyl-cyclopropyl]-6-[(3S)-3-methylmorpholin-4-yl]pyrimidin-2-yl]phenyl]-3-(1-methylpyrazol-4-yl)urea], for which the IC50 turned out to be 6.7 nM.

For `C[C@H]1COCCN1c1cc(C2(S(=O)(=O)c3ccccn3)CC2)nc(-c2ccc(NC(=O)NCc3ncc[nH]3)cc2)n1` [Example 36cu, 3-(1H-imidazol-2-ylmethyl)-1-[4-[4-[(3S)-3-methymorpholin-4-yl]-6-(1-pyridin-2-ylsulfonylcyclopropyl)pyrimidin-2-yl]phenyl]urea], the IC50 worked out at 68.6 nM.

For the molecule `Cc1nc(S(=O)(=O)C2(c3cc(N4CCOC[C@@H]4C)nc(-c4ccc(NC(=O)NC5CC5)cc4)n3)CC2)sc1C` [Example 80b, 3-cyclopropyl-1-[4-[4-[1-[(4,5-dimethyl-1,3-thiazol-2-yl)sulfonyl]cyclopropyl]-6-[(3S)-3-methylmorpholin-4-yl]pyrimidin-2-yl]phenyl]urea], the IC50 came out at 10.3 nM.

Regarding `CNC(=O)Nc1ccc(-c2nc(N3CCOCC3)cc(C3(S(=O)(=O)c4ccccn4)CC3)n2)cc1` [Example 56a, 3-methyl-1-[4-[4-morpholin-4-yl-6-(1-pyridin-2-ylsulfonylcyclopropyl)pyrimidin-2-yl]phenyl]urea], the IC50 amounted to 2.26 nM.

Turning to `C[C@H]1COCCN1c1cc(C2(S(=O)(=O)C3CC3)CCC2)nc(-c2ccc(NC(=O)NCCCO)cc2)n1` [Example 64z, 1-[4-[4-(1-cyclopropylsulfonylcyclobutyl)-6-[(3S)-3-methylmorpholin-4-yl]pyrimidin-2-yl]phenyl]-3-(3-hydroxypropyl)urea], the IC50 was determined as 8.66 nM.

For `C[C@H]1COCCN1c1cc(C2(S(=O)(=O)CCCO)CCCC2)nc(-c2ccc(NC(=O)NC3CC3)cc2)n1` [Example 43f, 3-cyclopropyl-1-[4-[4-[1-(3-hydroxypropyl-sulfonyl)cyclopen-tyl]-6-[(3S)-3-methylmorpholin-4-yl]pyrimidin-2-yl]phenyl]urea], the IC50 amounted to 39.2 nM.

With `C[C@H]1COCCN1c1cc(C2(S(=O)(=O)CCCO)CC2)nc(-c2ccc(NC(=O)NCCF)cc2)n1` [Example 64aj, 3-(2-fluoroethyl)-1-[4-[4-[1-(3-hydroxypropylsulfonyl)cyclopro-pyl]-6-[(3S)-3-methylmorpholin-4-yl]pyrimidin-2-yl]phenyl]urea], the IC50 is 7.78 nM.

In the case of `C[C@H]1COCCN1c1cc(C2(S(=O)(=O)c3ccc(F)cc3)CC2)nc(-c2cnc(NC(=O)NCCO)nc2)n1` [Example 14g, 1-[5-[4-[1-(4-fluorophenyl)sulfonylcyclopro-pyl]-6-[(3S)-3-methylmorpholin-4-yl]pyrimidin-2-yl]pyrimidin-2-yl]-3-(2-hydroxyethyl)urea], the IC50 stood at 85.7 nM.

For `C[C@H]1COCCN1c1cc(C2(S(=O)(=O)c3ccccc3F)CC2)nc(-c2ccc(NC(=O)NCC(F)F)cc2)n1` [Example 58d, 3-(2,2-difluoroethyl)-1-[4-[4-[1-(2-fluorophenyl)sulfonylcyclopropyl]-6-[(3S)-3-methylmorpholin-4-yl]pyrimidin-2-yl]phenyl]urea], the IC50 was 2.93 nM.

As for `C[C@H]1COCCN1c1cc(C2(S(=O)(=O)CCCO)CC2)nc(-c2ccc(NC(=O)NCC(F)F)cc2)n1` [Example 36cm, 3-(2,2-difluoroethyl)-1-[4-[4-[1-(3-hydroxypropylsulfonyl)cyclopropyl]-6-[(3S)-3-methylmorpholin-4-yl]pyrimidin-2-yl]phenyl]urea], the IC50 came out at 9.46 nM.

On to `C[C@H]1COCCN1c1cc(C2(S(C)(=O)=O)CC2)nc(-c2ccc(NC(=O)Nc3ccon3)cc2)n1` [Example 2g, 1-[4-[4-[(3S)-3-methylmorpholin-4-yl]-6-(1-methylsulfonylcyclopropyl)pyrimidin-2-yl]phenyl]-3-(1,2-oxazol-3-yl)urea], for which the IC50 was found to be 0.231 nM.

On to `C[C@H]1COCCN1c1cc(C2(S(=O)(=O)c3cc(F)cc(F)c3)CC2)nc(-c2ccc(NC(=O)NCCCO)cc2)n1` [Example 19l, 1-[4-[4-[1-(3,5-difluorophenyl)sulfonylcyclopro-pyl]-6-[(3S)-3-methylmorpholin-4-yl]pyrimidin-2-yl]phenyl]-3-(3-hydroxypropyl)urea], for which the IC50 is 1.52 nM.

In the case of `Cc1ccc(S(=O)(=O)C2(c3cc(N4CCOC[C@@H]4C)nc(-c4ccc(NC(=O)NC5CC5)cc4)n3)CC2)cc1` [Example 95m, 3-cyclopropyl-1-[4-[4-[(3S)-3-methylmorpholin-4-yl]-6-[1-(4-methylphenyl)sulfonylcyclopropyl]pyrimidin-2-yl]phenyl]urea], the IC50 came out at 2.02 nM.

In the case of `C[C@H]1COCCN1c1cc(C2(S(=O)(=O)CCCO)CCC2)nc(-c2ccc(NC(=O)Nc3cnn(C)c3)cc2)n1` [Example 43d, 1-[4-[4-[1-(3-hydroxypropylsulfonyl)cyclobu-tyl]-6-[(3S)-3-methylmorpholin-4-yl]pyrimidin-2-yl]phenyl]-3-(1-methylpyrazol-4-yl)urea], the IC50 amounted to 11 nM.

These data come from US20090018134A1, “Compounds - 945” (AstraZeneca AB, priority 2007, published 2009).
